According to patent publication US12012417B2, “N-substituted tetrahydrothienopyridine derivatives and uses thereof” (NOVARTIS AG, priority 2018, dated 2024):
Where a name gives a salt, the structure may show the parent alone.

Columns and labels:
[1] = tested on: Dengue 1 virus MY97-10245; experiment: High-content imaging cell-based flavivirus immunodetection (HCl-CFI) assay, Dengue 1; conditions: for EC50: Dengue virus, A549, 48 h, read-out: Dengue 1 virus MY97-10245 in A549 using HCl [Inhibitor/IC50] Qualified AC50
[2] = tested on: Dengue 2 virus MY97-10340; experiment: High-content imaging cell-based flavivirus immunodetection (HCl-CFI) assay, Dengue 2; conditions: for EC50: Dengue virus, A549, 48 h, read-out: Dengue 2 virus MY97-10340 in A549 using HCl [Inhibitor/IC50] Qualified AC50, A549 cells, MOI 0.3, 48 h, viral E protein expression
Procedure: High-Content Imaging Cell-Based Flavivirus Immunodetection (HCl-CFI) Assay
A549 cells (7×10^3 cells per well) in a 384-well plate were infected with the DENV-2 (MY97-10340) strain at an MOI of 0.3. The cells were then treated with 3-fold, 10-point serial dilutions of test compound. After 48 h, the cells were fixed with paraformadehyde, and the viral E protein detected with 4G2 antibody labeled with Dylight™ 488 (GenScript). Cell nuclei were stained with Draq5 (Pierce/Thermo), and images were taken on the Opera imaging system (Perkin Elmer). A dose-response curve was plotted to calculate the effective concentration of compound needed to reduce expression of E protein by 50% (EC50) using GraphPad Prism.
The resulted EC50 values are summarized in Table 1 below: ±≥1 μM; 1 μM>++≥0.1 μM; 0.1 μm>+++

[3] = tested on: Dengue 3 virus MY05-34640-WT-C6/36; experiment: High-content imaging cell-based flavivirus immunodetection (HCl-CFI) assay, Dengue 3; conditions: for EC50: Dengue virus, A549, 48 h, read-out: Dengue 3 virus MY05-34640-WT-C6/36 in A549 using HCl [Inhibitor/IC50] Qualified AC50
[4] = tested on: Dengue 4 virus MY01-22713; experiment: High-content imaging cell-based flavivirus immunodetection (HCl-CFI) assay, Dengue 4; conditions: for EC50: Dengue virus, A549, 48 h, read-out: Dengue 4 virus MY01-22713 in A549 using HCl [Inhibitor/IC50] Qualified AC50, A549 cells, 48 h, viral E protein expression
[5] = A549 cells, 48 h, viral E protein expression

Structure (SMILES) | EC50 [1] [nM] | EC50 [2] [nM] | EC50 [3] [nM] | EC50 [4] [nM] | Dengue 1 virus MY97-10245 in A549 using HCl [Inhibitor/IC50] Qualified AC50 [1, 5] | Dengue 2 virus MY97-10340 in A549 using HCl [Inhibitor/IC50] Qualified AC50 ([2]; A549 cells, MOI 0.3, 48 h, viral E protein expression) | Dengue 3 virus MY05-34640-WT-C6/36 in A549 using HCl [Inhibitor/IC50] Qualified AC50 [3, 5] | Dengue 4 virus MY01-22713 in A549 using HCl [Inhibitor/IC50] Qualified AC50 [4, 5]
CN(C)S(=O)(=O)c1ccc(CC(=O)Nc2sc3c(c2C#N)CN(CC2CCCCC2)CC3)cc1 [Example 14, N-(3-cyano-5-(cyclohexylmethyl)-4,5,6,7-tetrahydrothieno[3,2-c]pyridin-2-yl)-2-(4-(N,N-dimethylsulfamoyl)phenyl)acetamide] | 100 to 1000 | 100 to 1000 | 100 to 1000 | 100 to 1000 | – | – | – | –
N#Cc1c(NC(=O)Cc2ccc(S(N)(=O)=O)cc2)sc2c1CCCN(Cc1cccc(F)c1)C2 [Example 126, N-(3-cyano-7-(3-fluorobenzyl)-5,6,7,8-tetrahydro-4H-thieno[2,3-c]azepin-2-yl)-2-(4-sulfamoylphenyl)acetamide] | 100 to 1000 | 100 to 1000 | 100 to 1000 | < 100 | – | – | – | –
N#Cc1c(NC(=O)Cc2ccc(S(N)(=O)=O)cc2)sc2c1CN(CC1CC(F)(F)C1)CC2 [Example 2, N-(3-cyano-5-((3,3-difluorocyclobutyl)methyl)-4,5,6,7-tetrahydrothieno[3,2-c]pyridin-2-yl)-2-(4-sulfamoylphenyl)acetamide] | > 1000 | 100 to 1000 | 100 to 1000 | 100 to 1000 | – | – | – | –
COc1cc(CC(=O)Nc2sc3c(c2C#N)C(C)(C)N(Cc2ccccc2)CC3)ccc1S(N)(=O)=O [Example 49, N-(5-benzyl-3-cyano-4,4-dimethyl-4,5,6,7-tetrahydrothieno[3,2-c]pyridin-2-yl)-2-(3-methoxy-4-sulfamoylphenyl)acetamide] | > 1000 | 100 to 1000 | 100 to 1000 | > 1000 | – | – | – | –
N#Cc1c(NC(=O)Cc2ccc(S(N)(=O)=O)cc2)sc2c1CN(CC1CCCC1)CC2 [Example 4, N-(3-cyano-5-(cyclopentylmethyl)-4,5,6,7-tetrahydrothieno[3,2-c]pyridin-2-yl)-2-(4-sulfamoylphenyl)acetamide] | 100 to 1000 | < 100 | 100 to 1000 | < 100 | – | – | – | –
COc1cc(C#N)cc(CC(=O)Nc2sc3c(c2C#N)CN(Cc2cccc(F)c2)CC3)c1 [Example 38, N-(3-cyano-5-(3-fluorobenzyl)-4,5,6,7-tetrahydrothieno[3,2-c]pyridin-2-yl)-2-(3-cyano-5-methoxyphenyl)acetamide] | > 1000 | 100 to 1000 | 100 to 1000 | 100 to 1000 | – | – | – | –
CS(=O)(=O)Cc1ccc(CC(=O)Nc2sc3c(c2C#N)CN(Cc2cccc(F)c2)CC3)cc1 [Example 32, N-(3-cyano-5-(3-fluorobenzyl)-4,5,6,7-tetrahydrothieno[3,2-c]pyridin-2-yl)-2-(4-((methylsulfonyl)methyl)phenyl)acetamide] | 100 to 1000 | 100 to 1000 | < 100 | < 100 | – | – | – | –
N#Cc1c(NC(=O)Cc2ccc(S(N)(=O)=O)cc2)sc2c1CCN(Cc1cc(F)cc(F)c1)C2 [Example 93, N-(3-cyano-6-(3,5-difluorobenzyl)-4,5,6,7-tetrahydrothieno[2,3-c]pyridin-2-yl)-2-(4-sulfamoylphenyl) acetamide] | 100 to 1000 | < 100 | < 100 | < 100 | – | – | – | –
Cc1cccc(CN2CCc3c(sc(NC(=O)Cc4ccc(S(N)(=O)=O)cc4)c3C#N)C2)c1C [Example 95, N-(3-cyano-6-(2,3-dimethylbenzyl)-4,5,6,7-tetrahydrothieno[2,3-c]pyridin-2-yl)-2-(4-sulfamoylphenyl) acetamide] | 100 to 1000 | 100 to 1000 | < 100 | < 100 | – | – | – | –
CC1Cc2sc(NC(=O)Cc3ccc(S(N)(=O)=O)cc3)c(C#N)c2CN1CCC1CCCCC1 (stereo not shown) [Example 68, N-(3-cyano-5-(2-cyclohexylethyl)-6-methyl-4,5,6,7-tetrahydrothieno[3,2-c]pyridin-2-yl)-2-(4-sulfamoylphenyl)acetamide] | 100 to 1000 | < 100 | < 100 | < 100 | – | – | – | –
Cc1cc(C)cc(CN2CCc3c(sc(NC(=O)Cc4ccc(S(C)(=O)=O)cc4)c3C#N)C2)c1 [Example 118, N-(3-cyano-6-(3,5-dimethylbenzyl)-4,5,6,7-tetrahydrothieno[2,3-c]pyridin-2-yl)-2-(4-(methylsulfonyl)phenyl)acetamide] | > 1000 | 100 to 1000 | 100 to 1000 | 100 to 1000 | – | – | – | –
N#Cc1c(NC(=O)Cc2ccc(S(N)(=O)=O)cc2)sc2c1CCN(Cc1c(F)cccc1F)C2 [Example 116, N-(3-cyano-6-(2,6-difluorobenzyl)-4,5,6,7-tetrahydrothieno[2,3-c]pyridin-2-yl)-2-(4-sulfamoylphenyl)acetamide] | 100 to 1000 | < 100 | < 100 | < 100 | – | – | – | –
N#Cc1c(NC(=O)Cc2ccc(S(N)(=O)=O)cc2)sc2c1CN(CC13CC(F)(C1)C3)CC2 [Example 1, N-(3-cyano-5-((3-fluorobicyclo[1.1.1]pentan-1-yl)methyl)-4,5,6,7-tetrahydrothieno[3,2-c]pyridin-2-yl)-2-(4-sulfamoylphenyl)acetamide] | > 1000 | 100 to 1000 | 100 to 1000 | 100 to 1000 | – | – | – | –
COc1cc(CC(=O)Nc2sc3c(c2C#N)CN(CC2CC(F)(F)C2)CC3)ccc1S(N)(=O)=O [Example 50, N-(3-cyano-5-((3,3-difluorocyclobutyl)methyl)-4,5,6,7-tetrahydrothieno[3,2-c]pyridin-2-yl)-2-(3-methoxy-4-sulfamoylphenyl)acetamide] | 100 to 1000 | 100 to 1000 | 100 to 1000 | 100 to 1000 | – | – | – | –
Cc1cc(C)cc(CN2CCc3c(sc(NC(=O)Cc4ccc(S(N)(=O)=O)cc4)c3C#N)C2)c1 [Example 110, N-(3-cyano-6-(3,5-dimethylbenzyl)-4,5,6,7-tetrahydrothieno[2,3-c]pyridin-2-yl)-2-(4-sulfamoylphenyl)acetamide] | 100 to 1000 | < 100 | < 100 | < 100 | – | – | – | –
COc1cc(CC(=O)Nc2sc3c(c2C#N)CN(CC2CCCCC2)C(C)(C)C3)ccc1S(N)(=O)=O [Example 82, N-(3-cyano-5-(cyclohexylmethyl)-6,6-dimethyl-4,5,6,7-tetrahydrothieno[3,2-c]pyridin-2-yl)-2-(3-methoxy-4-sulfamoylphenyl)acetamide] | < 100 | < 100 | < 100 | < 100 | – | – | – | –
CN(C)S(=O)(=O)c1ccc(CC(=O)Nc2sc3c(c2C#N)CN(Cc2cccc(F)c2)CC3)cc1 [Example 47, N-(3-cyano-5-(3-fluorobenzyl)-4,5,6,7-tetrahydrothieno[3,2-c]pyridin-2-yl)-2-(4-(N,N-dimethylsulfamoyl)phenyl)acetamide] | 100 to 1000 | < 100 | < 100 | 100 to 1000 | – | – | – | –
N#Cc1c(NC(=O)Cc2ccc(S(N)(=O)=O)cc2)sc2c1CCN(CC1CCCCC1)CC2 [Example 125, N-(3-cyano-6-(cyclohexylmethyl)-5,6,7,8-tetrahydro-4H-thieno[2,3-d]azepin-2-yl)-2-(4-sulfamoylphenyl)acetamide] | > 1000 | 100 to 1000 | 100 to 1000 | 100 to 1000 | – | – | – | –
CCC1(CC)Cc2sc(NC(=O)Cc3ccc(S(N)(=O)=O)cc3)c(C#N)c2CN1CC1CC(F)(F)C1 [Example 79, N-(3-cyano-5-((3,3-difluorocyclobutyl)methyl)-6,6-diethyl-4,5,6,7-tetrahydrothieno[3,2-c]pyridin-2-yl)-2-(4-sulfamoylphenyl)acetamide] | < 100 | < 100 | < 100 | < 100 | – | – | – | –
COc1cc(CC(=O)Nc2sc3c(c2C#N)CN(CC2CC(F)(F)C2)CC3)ccc1S(C)(=O)=O [Example 51, N-(3-cyano-5-((3,3-difluorocyclobutyl)methyl)-4,5,6,7-tetrahydrothieno[3,2-c]pyridin-2-yl)-2-(3-methoxy-4-(methylsulfonyl)phenyl)acetamide] | 100 to 1000 | 100 to 1000 | 100 to 1000 | 100 to 1000 | – | – | – | –
CC1Cc2c(sc(NC(=O)Cc3ccc(S(N)(=O)=O)cc3)c2C#N)CN1Cc1cccc(F)c1 (stereo not shown) [Example 123, N-(3-cyano-6-(3-fluorobenzyl)-5-methyl-4,5,6,7-tetrahydrothieno[2,3-c]pyridin-2-yl)-2-(4-sulfamoylphenyl)acetamide] | – | – | – | – | + (±≥1 μM) | ++ (1 μM>++≥0.1 μM) | ++ (1 μM>++≥0.1 μM) | ++ (1 μM>++≥0.1 μM)
CC(c1ccccc1)N1CCc2c(sc(NC(=O)Cc3ccc(S(N)(=O)=O)cc3)c2C#N)C1 (stereo not shown) [Example 90, N-(3-cyano-6-(1-phenylethyl)-4,5,6,7-tetrahydrothieno[2,3-c]pyridin-2-yl)-2-(4-sulfamoylphenyl)-acetamide hydrochloride] | > 1000 | 100 to 1000 | 100 to 1000 | 100 to 1000 | – | – | – | –
